Test results from patent US20180201592A1, “2-AMINO-1,3,4-THIADIAZINE AND 2-AMINO-1,3,4-OXADIAZINE BASED ANTIFUNGAL AGENTS” (F2G Limited, priority 2015, published 2018).
Converted amounts (≈) assume the structure as drawn. Where two headings read alike, the source gives them in different places.

How the values were obtained:
[1] = test system: Aspergillus fumigatus; assay: Minimum inhibitory concentration, YAG medium; assay type: cell-based; settings: banded MIC grade; for MIC: Aspergillus fumigatus, YAG media
In short: (§1)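 Testing uses spores harvested after 5 days on Sabouraud agar, grown 24 hrs at 35° C in glucose/ammonium chloride/yeast extract (YAG) medium against twofold drug dilutions. Optical density at 485 nm defines MIC as >70% growth reduction compared with drug-free wells.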

[2] = test system: A. fumigatus 210; assay: Minimum inhibitory concentration, YAG medium; assay type: cell-based, Aspergillus fumigatus; settings: banded MIC grade; for MIC: Aspergillus fumigatus, 210, YAG media
In short: as §1

[3] = test system: A. terreus 49; assay: Minimum inhibitory concentration, YAG medium; assay type: cell-based, Aspergillus terreus; settings: banded MIC grade; for MIC: Aspergillus terreus, 49, YAG media
In short: (§2)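 Compound from a 5 mg/mL DMSO stock was further diluted in sterile water, then serially doubled in water and plated with Aspergillus spp. spores. After 24 hrs at 35° C, growth was monitored by optical density at 485 nm; MICs are given in mg/L.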

[4] = test system: Aspergillus flavus; assay: Minimum inhibitory concentration, YAG medium; assay type: cell-based; settings: banded MIC grade; for MIC: Aspergillus flavus, YAG media
In short: as §2

[5] = test system: Aspergillus niger; assay: Minimum inhibitory concentration, YAG medium; assay type: cell-based; settings: banded MIC grade; for MIC: Aspergillus niger, YAG media
In short: as §2

[6] = test system: Aspergillus terreus; assay: Minimum inhibitory concentration, YAG medium; assay type: cell-based; settings: banded MIC grade; for MIC: Aspergillus terreus, YAG media
In short: as §2

[7] = test system: C. albicans; assay: Minimum inhibitory concentration, RPMI medium; assay type: cell-based; settings: banded MIC grade; for MIC: Candida albicans, RPMI media
In short: (§3)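 Compound stock was made at 5 mg/mL in DMSO, diluted in sterile water and serially doubled in water, then tested in RPMI 1640 medium. Plates were incubated 24-48 hrs at 35° C, and growth was scored as optical density at 485 nm.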

[8] = test system: C. parapsilosis; assay: Minimum inhibitory concentration, RPMI medium; assay type: cell-based; settings: banded MIC grade; for MIC: Lodderomyces parapsilosis, RPMI media
In short: as §3

[9] = test system: C. tropicalis; assay: Minimum inhibitory concentration, RPMI medium; assay type: cell-based; settings: banded MIC grade; for MIC: Candida tropicalis, RPMI media
In short: as §3

[10] = read-out: MIC grade C. ALBICANS
[11] = read-out: MIC grade, C. ALBICANS, RPMI media
[12] = read-out: MIC grade C. PARAPSILOSIS
[13] = read-out: MIC grade, C. PARAPSILOSIS, RPMI media

| Compound | MIC grade, A. FUMIGATUS, YAG media [1] | MIC grade, A. FUMIGATUS 210, YAG media [2] | MIC grade, A. TERREUS 49, YAG media [3] | MIC grade, A. FLAVUS, YAG media [4] | MIC grade, A. NIGER, YAG media [5] | MIC grade, A. TERREUS, YAG media [6] | MIC grade, C. ALBICANS, RPMI media [7] | MIC grade, C. PARAPSILOSIS, RPMI media [8] | MIC grade, C. TROPICALIS, RPMI media [9] | MIC [1] [µg/mL] | MIC [2] [µg/mL] | MIC [3] [µg/mL] | MIC [4] [µg/mL] | MIC [5] [µg/mL] | MIC [6] [µg/mL] | MIC [7, 10] [µg/mL] | MIC [7, 11] [µg/mL] | MIC [8, 12] [µg/mL] | MIC [8, 13] [µg/mL] | MIC [9] [µg/mL] |
| --- | --- | --- | --- | --- | --- | --- | --- | --- | --- | --- | --- | --- | --- | --- | --- | --- | --- | --- | --- | --- |
| CCc1cccc(OCCCCCC2=NN=C(N)SC2)c1 | 4 (4: <0.2 mg/L) | 4 (4: <0.2 mg/L) | 4 (4: <0.2 mg/L) | 4 (4: <0.2 mg/L) | 4 (4: <0.2 mg/L) | 4 (4: <0.2 mg/L) | 4 (4: <1 mg/L) | 4 (4: <1 mg/L) | 4 (4: <1 mg/L) | – | – | – | – | – | – | – | – | – | – | – |
| CCCCc1ccc(COCCC2=NN=C(N)SC2)cc1 | 1 (1: ≥5 mg/L) | 1 (1: ≥5 mg/L) | 2 (2: 1-5 mg/L) | 3 (3: 0.2-1 mg/L) | 3 (3: 0.2-1 mg/L) | 3 (3: 0.2-1 mg/L) | 2 (2: 5-20 mg/L) | 2 (2: 5-20 mg/L) | 2 (2: 5-20 mg/L) | – | – | – | – | – | – | – | – | – | – | – |
| CN1N=C(N)SC=C1c1cc2ccccc2o1 [5-(benzofuran-2-yl)-4-methyl-1,3,4-thiadiazin-2-amine] | – | – | – | – | – | – | – | – | – | 1 to 5 (≈ 4.08 to 20.4 µM) | 0.2 to 1 (≈ 0.815 to 4.08 µM) | 0.2 to 1 (≈ 0.815 to 4.08 µM) | 1 to 5 (≈ 4.08 to 20.4 µM) | 1 to 5 (≈ 4.08 to 20.4 µM) | 0.2 to 1 (≈ 0.815 to 4.08 µM) | 5 to 20 (≈ 20.4 to 81.5 µM) | ≥ 20 | 5 to 20 (≈ 20.4 to 81.5 µM) | ≥ 20 | ≥ 20 |
| NC1=NN=C(CCOc2ccc(Br)cc2)CS1 | 4 (4: <0.2 mg/L) | 4 (4: <0.2 mg/L) | 1 (1: ≥5 mg/L) | 4 (4: <0.2 mg/L) | 4 (4: <0.2 mg/L) | 3 (3: 0.2-1 mg/L) | 1 (1: ≥20 mg/L) | 3 (3: 1-5 mg/L) | 2 (2: 5-20 mg/L) | – | – | – | – | – | – | – | – | – | – | – |
| CCCCOc1cccc(C2=NN=C(N)SC2)c1 | 1 (1: ≥5 mg/L) | 1 (1: ≥5 mg/L) | 1 (1: ≥5 mg/L) | 1 (1: ≥5 mg/L) | 1 (1: ≥5 mg/L) | 1 (1: ≥5 mg/L) | 1 (1: ≥20 mg/L) | 1 (1: ≥20 mg/L) | 1 (1: ≥20 mg/L) | – | – | – | – | – | – | – | – | – | – | – |
| CCc1ccc(OCCCCCC2=NN=C(N)SC2)cc1 | 3 (3: 0.2-1 mg/L) | 3 (3: 0.2-1 mg/L) | 4 (4: <0.2 mg/L) | 4 (4: <0.2 mg/L) | 4 (4: <0.2 mg/L) | 4 (4: <0.2 mg/L) | 4 (4: <1 mg/L) | 4 (4: <1 mg/L) | 4 (4: <1 mg/L) | – | – | – | – | – | – | – | – | – | – | – |
| COc1ccc(C2=CSC(N)=NN2C)cc1 [5-(4-methoxyphenyl)-4-methyl-1,3,4-thiadiazin-2-amine] | – | – | – | – | – | – | – | – | – | < 0.2 | < 0.2 | < 0.2 | < 0.2 | < 0.2 | < 0.2 | < 1 | < 1 | < 1 | < 1 | 1 to 5 (≈ 4.25 to 21.2 µM) |
| NC1=NN=C(c2ccccc2)CS1 [5-phenyl-6~{H}-1,3,4-thiadiazin-2-amine] | 3 (3: 0.2-1 mg/L) | 3 (3: 0.2-1 mg/L) | 3 (3: 0.2-1 mg/L) | 3 (3: 0.2-1 mg/L) | 3 (3: 0.2-1 mg/L) | 3 (3: 0.2-1 mg/L) | 1 (1: ≥20 mg/L) | 1 (1: ≥20 mg/L) | 1 (1: ≥20 mg/L) | – | – | – | – | – | – | – | – | – | – | – |
| CC(C)OCCC1=NN=C(N)SC1 | 4 (4: <0.2 mg/L) | 1 (1: ≥5 mg/L) | 2 (2: 1-5 mg/L) | 1 (1: ≥5 mg/L) | 1 (1: ≥5 mg/L) | 2 (2: 1-5 mg/L) | 1 (1: ≥20 mg/L) | 3 (3: 1-5 mg/L) | 1 (1: ≥20 mg/L) | – | – | – | – | – | – | – | – | – | – | – |
| NC1=NN=C(CCCCCOc2ccc(F)cc2)CS1 | 4 (4: <0.2 mg/L) | 4 (4: <0.2 mg/L) | 4 (4: <0.2 mg/L) | 4 (4: <0.2 mg/L) | 4 (4: <0.2 mg/L) | 4 (4: <0.2 mg/L) | 4 (4: <1 mg/L) | 4 (4: <1 mg/L) | 4 (4: <1 mg/L) | – | – | – | – | – | – | – | – | – | – | – |
| CCCOc1ccc(CCC2=NN=C(N)SC2)cc1 | 4 (4: <0.2 mg/L) | 4 (4: <0.2 mg/L) | 4 (4: <0.2 mg/L) | 3 (3: 0.2-1 mg/L) | 4 (4: <0.2 mg/L) | 4 (4: <0.2 mg/L) | 4 (4: <1 mg/L) | 4 (4: <1 mg/L) | 3 (3: 1-5 mg/L) | – | – | – | – | – | – | – | – | – | – | – |
| CCCc1ccc(C2=NN=C(N)SC2)cc1 | 3 (3: 0.2-1 mg/L) | 3 (3: 0.2-1 mg/L) | 3 (3: 0.2-1 mg/L) | 2 (2: 1-5 mg/L) | 2 (2: 1-5 mg/L) | 3 (3: 0.2-1 mg/L) | 1 (1: ≥20 mg/L) | 1 (1: ≥20 mg/L) | 1 (1: ≥20 mg/L) | – | – | – | – | – | – | – | – | – | – | – |
